pEC50: −log10 of the molar value.
Test system: A375 cells
Assay: Assay 1: A375 cells treated with S1152, S1008 and compound, immunofluorescence (sc-365823) signal
Type: cell-based
Settings: 1 μM S1152 + 0.5 μM S1008, one day
Experimental: One thousand four hundred A375 cells were seeded in each well of a 384 well microplate. One day later they were treated with 1 μM S1152 (Selleckchem) in dimethyl sulfoxide, 0.5 μM S1008 (Selleckchem) and dose ranges of invention compounds for one day in Dulbecco's Modified Eagle's Medium supplemented with 10% fetal calf serum and 2 mM (2S)-2-amino-4-carbamoylbutanoic acid. Wells were incubated with 4% polyoxymethylene (Sigma Aldrich 158127) at ambient temperature. […] After one minute phosphate-buffered saline was replaced with 0.2% polyethylene glycol octylphenyl ether in phosphate-buffered saline. […] 1% aminoethanoic acid in phosphate-buffered saline was added for ten minutes at ambient temperature. […] After one hour at ambient temperature in the dark, signal in wells was measured with a Acumen Cellista. 3,8-Diamino-5-[3-(diethylmethylammonio)propyl]-6-phenylphenanthridinium diiodide-positive objects were defined in FL3 (565-600 nm) with a perimeter between 50-800 μm and a total intensity of 10000-1000000 FLU. Signal in FL2 (500-530 nm) was measured in defined objects. A normalized ratio of total In FL2 over total In FL3 staining was log transformed. A non-linear regression (variable slope, 4 parameters) was used to calculate EC50 values using GraphPad Prism (Version 7.0d).
In an alternative procedure, assay 1 has been affected by changing the counteratain. […] Cells were incubated with 0.5 μg/ml 2-(4-Amidinophenyl)-6-indolecarbamidine dihydrochloride, 4′,6-Diamidino-2-phenylindole dihydrochloride (Sigma D9542) in phosphate-buffered saline for at least 30 minutes at ambient temperature in the dark. A Celigo Imager (Nexcelom) was used to acquire images in the blue and green channel. The blue channel was used as a mask to define the area for the green signal. The average integrated intensity of the green signal was normalized and a non-linear regression (variable slope, 4 parameter) was used to calculate the EC50 values using GraphPad Prism (Version 8.4)

With `COc1cncc(-c2cc(Nc3cccc(Cl)c3)nc([C@@H]3CC[C@H](C)N(C(C)=O)C3)n2)c1` (racemic) [Compound 00016, (+/−)-cis-1-(5-(4-((3-chlorophenyl)amino)-6-(5-methoxypyridin-3-yl)pyrimidin-2-yl)-2-methylpiperidin-1-yl)ethan-1-one] the pEC50 was > 6.70.

`COc1cncc(-c2cc(Nc3cccc(Cl)c3)nc([C@@H]3CC[C@@H](C)N(C(C)=O)C3)n2)c1` (racemic) [Compound 00017, (+/−)-trans-1-(5-(4-((3-chlorophenyl)amino)-6-(5-methoxypyridin-3-yl)pyrimidin-2-yl)-2-methylpiperidin-1-yl)ethan-1-one] showed a pEC50 (Homo sapiens, A-375, 24 h) of 5.00 to 6.00.

With `CC[C@H]1CC[C@@H](c2nc(Nc3cccc(C)c3)cc(-c3cccnc3)n2)CN1C(C)=O` (racemic) [Compound 00018, (+/−)-cis-1-(2-ethyl-5-(4-(pyridin-3-yl)-6-(m-tolylamino)pyrimidin-2-yl)piperidin-1-yl)ethan-1-one] the pEC50 (Homo sapiens, A-375, 24 h) was 5.00 to 6.00.

With `CC[C@@H]1CC[C@@H](c2nc(Nc3cccc(C)c3)cc(-c3cccnc3)n2)CN1C(C)=O` (racemic) [Compound 00019, (+/−)-frans-1-(2-ethyl-5-(4-(pyridin-3-yl)-6-(m-tolylamino)pyrimidin-2-yl)piperidin-1-yl)ethan-1-one] the pEC50 (Homo sapiens, A-375, 24 h) was < 5.00.

`CC[C@H]1CC[C@@H](c2nc(Nc3cccc(F)c3)cc(-c3cccnc3)n2)CN1C(C)=O` (racemic) [Compound 00020, (+/−)-c/s-1-(2-ethyl-5-(4-((3-fluorophenyl)amino)-6-(pyridin-3-yl)pyrimidin-2-yl)piperidin-1-yl)ethan-1-one] showed a pEC50 (Homo sapiens, A-375, 24 h) of 5.00 to 6.00.

`CC[C@@H]1CC[C@@H](c2nc(Nc3cccc(F)c3)cc(-c3cccnc3)n2)CN1C(C)=O` (racemic) [Compound 00021, (+/−)-trans-1-(2-ethyl-5-(4-((3-fluorophenyl)amino)-6-(pyridin-3-yl)pyrimidin-2-yl)piperidin-1-yl)ethan-1-one] was tested, and the pEC50 (Homo sapiens, A-375, 24 h) was < 5.00.

In the case of `CC(=O)N1C[C@H](c2nc(Nc3cccc(C)c3)cc(-c3cccnc3)n2)CC[C@@H]1C(F)(F)F` (racemic) [Compound 00022, (+/−)-c/s-1-(5-(4-(pyridin-3-yl)-6-(m-tolylamino)pyrimidin-2-yl)-2-(trifluoromethyl)piperidin-1-yl)ethan-1-one], the pEC50 was 6.00 to 6.70.

`CC(=O)N1C[C@H](c2nc(Nc3cccc(F)c3)cc(-c3cccnc3)n2)CC[C@@H]1C(F)(F)F` (racemic) [Compound 00023, (+/−)-c/s-1-(5-(4-((3-fluorophenyl)amino)-6-(pyridin-3-yl)pyrimidin-2-yl)-2-(trifluoromethyl)piperidin-1-yl)ethan-1-one] was tested, and the pEC50 was 6.00 to 6.70.

In the case of `CC(=O)N1C[C@H](c2nc(Nc3cccc(F)c3)cc(-c3cccnc3)n2)CC[C@H]1C(F)(F)F` (racemic) [Compound 00024, (+/−)-trans-1-(5-(4-((3-fluorophenyl)amino)-6-(pyridin-3-yl)pyrimidin-2-yl)-2-(trifluoromethyl)piperidin-1-yl)ethan-1-one], the pEC50 (Homo sapiens, A-375, 24 h) was < 5.00.

In the case of `CC(=O)N1C[C@H](c2nc(Nc3cccc(F)c3)cc(-c3cccnc3)n2)CC[C@@H]1C(F)F` (racemic) [Compound 00025, (+/−)-c/s-1-(2-(difluoromethyl)-5-(4-((3-fluorophenyl)amino)-6-(pyridin-3-yl)pyrimidin-2-yl)piperidin-1-yl)ethan-1-one], the pEC50 (Homo sapiens, A-375, 24 h) was 5.00 to 6.00.

In the case of `CC(=O)N1C[C@H](c2nc(Nc3cccc(F)c3)cc(-c3cccnc3)n2)CC[C@H]1C(F)F` (racemic) [Compound 00026, (+/−)-frans-1-(2-(difluoromethyl)-5-(4-((3-fluorophenyl)amino)-6-(pyridin-3-yl)pyrimidin-2-yl)piperidin-1-yl)ethan-1-one], the pEC50 (Homo sapiens, A-375, 24 h) was < 5.00.

For `CC(=O)N1C[C@H](c2nc(Nc3cccc(C)c3)cc(-c3cccnc3)n2)CC[C@@H]1C(F)F` (racemic) [Compound 00027, (+/−)-cis-1-(2-(difluoromethyl)-5-(4-(pyridin-3-yl)-6-(m-tolylamino)pyrimidin-2-yl)piperidin-1-yl)ethan-1-one], the pEC50 (Homo sapiens, A-375, 24 h) was 5.00 to 6.00.

For `CC(=O)N1C[C@H](c2nc(Nc3cncc(C)c3)cc(-c3cncnc3)n2)CC[C@@H]1C` (racemic) [Compound 00097, (+/−)-c/s-1-(2-methyl-5-(6-((5-methylpyridin-3-yl)amino)-[4,5′-bipyrimidin]-2-yl)piperidin-1-yl)ethan-1-one], the pEC50 (Homo sapiens, A-375, 24 h) was 5.00 to 6.00.

For `CC(=O)N1C[C@H](c2nc(Nc3cncc(C)c3)cc(-c3cncc(C)c3)n2)CC[C@@H]1C` (racemic) [Compound 00098, (+/−)-c/s-1-(2-methyl-5-(4-(5-methylpyridin-3-yl)-6-((5-methylpyridin-3-yl)amino)pyrimidin-2-yl)piperidin-1-yl)ethan-1-one], the pEC50 was > 6.70.

Compound `CC(=O)N1C[C@H](c2nc(Nc3cncc(C)c3)cc(-c3cncc4[nH]ccc34)n2)CC[C@@H]1C` (racemic) [Compound 00099, (+/−)-cis-1-(2-methyl-5-(4-((5-methylpyridin-3-yl)amino)-6-(1H-pyrrolo[2,3-c]pyridin-4-yl)pyrimidin-2-yl)piperidin-1-yl)ethan-1-one] has a pEC50 of 6.00 to 6.70.

`CC(=O)N1C[C@H](c2nc(Nc3cncc(C)c3)cc(-c3cncc(C4COC4)c3)n2)CC[C@@H]1C` (racemic) [Compound 00100, (+/−)-c/s-1-(2-methyl-5-(4-((5-methylpyridin-3-yl)amino)-6-(5-(oxetan-3-yl)pyridin-3-yl)pyrimidin-2-yl)piperidin-1-yl)ethan-1-one] was tested, and the pEC50 was 6.00 to 6.70.

`CC(=O)N1C[C@H](c2nc(Nc3cccnc3)cc(-c3cccnc3)n2)CC[C@@H]1C` (racemic) [Compound 00102, (+/−)-cis-1-(2-methyl-5-(4-(pyridin-3-yl)-6-(pyridin-3-ylamino)pyrimidin-2-yl)piperidin-1-yl)ethan-1-one] was tested, and the pEC50 was 6.00 to 6.70.

`CC(=O)N1C[C@H](c2nc(Nc3cccc(F)c3)cc(-c3cncc(O)c3)n2)CC[C@@H]1C` (stereo in doubt) [Compound 00005] was tested, and the pEC50 was > 6.70.

In the case of `CC(=O)N1C[C@@H](c2nc(Nc3cncc(C)c3)cc(-c3cnccn3)n2)CC[C@H]1C` [Compound 00002, 1-((2R,5S)-2-methyl-5-(4-((5-methylpyridin-3-yl)amino)-6-(pyrazin-2-yl)pyrimidin-2-yl)piperidin-1-yl)ethan-1-one], the pEC50 was < 5.00.

`CC(=O)N1C[C@H](c2nc(Nc3ccncc3)cc(-c3cccnc3)n2)CC[C@@H]1C` [Compound 00006] was tested, and the pEC50 was 6.00 to 6.70.

For `CC(=O)N1C[C@@H](c2nc(Nc3ccncc3)cc(-c3cccnc3)n2)CC[C@H]1C` [Compound 00007], the pEC50 was < 5.00.

In the case of `[2H]C([2H])([2H])[C@H]1CC[C@@H](c2nc(Nc3cccc(F)c3)cc(-c3cccnc3)n2)CN1C(C)=O` [Compound 00010], the pEC50 was > 6.70.

`[2H]C([2H])([2H])[C@@H]1CC[C@H](c2nc(Nc3cncc(C)c3)cc(-c3cnccn3)n2)CN1C(C)=O` [Compound 00011] was tested, and the pEC50 was < 5.00.

`[2H]C([2H])([2H])[C@H]1CC[C@@H](c2nc(Nc3cncc(C)c3)cc(-c3cnccn3)n2)CN1C(C)=O` [Compound 000012] was tested, and the pEC50 was > 6.70.

With `CC(=O)N1C[C@H](c2nc(Nc3cccc(F)c3)cc(-c3cccnc3)n2)CC[C@H]1C` [Compound 00015, (+/+)-trans-1-(5-(4-((3-fluorophenyl)amino)-6-(pyridin-3-yl)pyrimidin-2-yl)-2-methylpiperidin-1-yl)ethan-1-one] the pEC50 (Homo sapiens, A-375, 24 h) was < 5.00.

`CC(=O)N1C[C@H](c2nc(Nc3ccc4[nH]ccc4c3)cc(-c3cccnc3)n2)CC[C@@H]1C` [Compound 00028, 1-((2S,5R)-5-(4-((1H-indol-5-yl)amino)-6-(pyridin-3-yl)pyrimidin-2-yl)-2-methylpiperidin-1-yl)ethan-1-one] was tested, and the pEC50 was > 6.70.

For `CC(=O)N1C[C@H](c2nc(Nc3ccc4cn[nH]c4c3)cc(-c3cccnc3)n2)CC[C@@H]1C` [Compound 00029, 1-((2S,5R)-5-(4-((1H-indazol-6-yl)amino)-6-(pyridin-3-yl)pyrimidin-2-yl)-2-methylpiperidin-1-yl)ethan-1-one], the pEC50 was 6.00 to 6.70.

In the case of `COc1cc(F)cc(Nc2cc(-c3cccnc3)nc([C@@H]3CC[C@H](C)N(C(C)=O)C3)n2)c1` [Compound 00031, 1-((2S,5R)-5-(4-((3-fluoro-5-methoxyphenyl)amino)-6-(pyridin-3-yl)pyrimidin-2-yl)-2-methylpiperidin-1-yl)ethan-1-one], the pEC50 was > 6.70.

Work on `CC(=O)N1C[C@H](c2nc(Nc3ccc4nc[nH]c4c3)cc(-c3cccnc3)n2)CC[C@@H]1C` [Compound 00032, 1-((2S,5R)-5-(4-((1H-benzo[d]imidazol-6-yl)amino)-6-(pyridin-3-yl)pyrimidin-2-yl)-2-methylpiperidin-1-yl)ethan-1-one] yielded a pEC50 of 6.00 to 6.70.

For `CC(=O)N1C[C@H](c2nc(Nc3ccc4[nH]nnc4c3)cc(-c3cccnc3)n2)CC[C@@H]1C` [Compound 00033, 1-((2S,5R)-5-(4-((1H-benzo[d][1,2,3]triazol-5-yl)amino)-6-(pyridin-3-yl)pyrimidin-2-yl)-2-methylpiperidin-1-yl)ethan-1-one], the pEC50 was 6.00 to 6.70.

— patent US12478624B2, “Heterocyclic derivatives, pharmaceutical compositions and their use in the treatment or amelioration of cancer” (Tolremo Therapeutics AG, priority 2019, dated 2025)
